One assay deals with rhinovirus B14. Kind of assay: Antiviral activity against Human rhinovirus B14. The format is functional, organism-based. To be noted: Rhinovirus B.
In assay [1] the test system is Enterovirus. Kind of assay: Antiviral activity against Enterovirus clinical isolate. Type of assay: functional, organism-based.
Another assay relates to HeLa. Briefly: Cytotoxicity against human HeLa cells after 3 days by MTT assay. The note with it: 72 h. The format is functional, cell-based. (Tetrazolium dyes change colour on reduction, which living cells bring about.)
Assay [2] relates to Enterovirus A71. Briefly: Antiviral activity against Enterovirus A71. To be noted: Enterovirus A. Type of assay: functional, organism-based.
In assay [3] the test system is Enterovirus. Briefly: Antiviral activity against Rhinovirus. Type of assay: functional, organism-based.
Another assay concerns Coxsackievirus B3. Kind of assay: Antiviral activity against Coxsackievirus B3. Type of assay: functional, organism-based. The note with it: Enterovirus B.
The subject of a further assay is rhinovirus A2. Kind of assay: Antiviral activity against Human rhinovirus A2. The format is functional, organism-based. To be noted: Rhinovirus A.
For assay [4], the system named is Poliovirus 2. Briefly: Antiviral activity against Human poliovirus 2. The format is functional, organism-based. The note with it: Enterovirus C.
Assay [5] concerns Poliovirus 2. Briefly: Antiviral activity against Human poliovirus 2 relative to control. The format is functional.
Assay [6] concerns Enterovirus C. Briefly: Antiviral activity against Poliovirus assessed as reduction in virus induced cytopathic effect. The format is functional, organism-based. For orientation: Protection from cytopathic effect is a common read-out in antiviral testing.
Assay [7] deals with Human rhinovirus sp. Kind of assay: Antiviral activity against Human rhinovirus clinical isolates relative to control. The format is functional.
In assay [8] the test system is Enterovirus C. Kind of assay: Antiviral activity against Poliovirus. The format is functional, organism-based.
Assay [9] deals with Enterovirus C. Briefly: Antiviral activity against Poliovirus assessed as reduction in virus induced cytopathic effect relative to control. The format is functional.
Assay [10] deals with Human rhinovirus sp. Kind of assay: Antiviral activity against Human rhinovirus clinical isolates. The format is functional, organism-based.
A short description of assay [11]: Antiviral activity against Human rhinovirus B3. Type of assay: functional.
In the next assay the test system is rhinovirus B5. Briefly: Antiviral activity against Human rhinovirus B5. Type of assay: functional, organism-based. To be noted: Rhinovirus B.
Assay [12] can be described thus: Antiviral activity against Human rhinovirus A8. The format is functional.
A short description of assay [13]: Antiviral activity against Human rhinovirus B48. The format is functional.
A short description of assay [14]: Antiviral activity against Human rhinovirus B42. The format is functional.
Assay [15] deals with Enterovirus A71. Kind of assay: Antiviral activity against Enterovirus A71 genotype B. The format is functional, organism-based. The note with it: Enterovirus A.
A further assay has as its system Coxsackievirus A9. Briefly: Antiviral activity against Coxsackievirus A9. The format is functional, organism-based. To be noted: Enterovirus B.
Assay [16] deals with Enterovirus A71. Kind of assay: Antiviral activity against Enterovirus A71 genotype A. Type of assay: functional, organism-based.
A further assay has as its system Coxsackievirus A24. Kind of assay: Antiviral activity against Coxsackievirus A24. The format is functional, organism-based. To be noted: Enterovirus C.
The subject of another assay is enterovirus D68. Kind of assay: Antiviral activity against Enterovirus D68. Type of assay: functional, organism-based. The note with it: Enterovirus D.
Assay [17] deals with Enterovirus A71. Briefly: Antiviral activity against Enterovirus A71 genotype C. Type of assay: functional, organism-based. The note with it: Enterovirus A.
The next assay deals with Echovirus E9. Briefly: Antiviral activity against Echovirus 9. To be noted: Enterovirus B. The format is functional, organism-based.
Assay [18] concerns Enterovirus. Briefly: Antiviral activity against Rhinovirus at 32 uM relative to control. The format is functional.
The next assay relates to Echovirus E11. Briefly: Antiviral activity against Echovirus-11. The format is functional, organism-based. The note with it: Enterovirus B.
A short description of assay [19]: Antiviral activity against Echovirus-3. Type of assay: functional, Echovirus E3.
In assay [20] the test system is Poliovirus 2. Kind of assay: Antiviral activity against Human poliovirus 2 infected in mouse. The format is functional, organism-based. The note with it: Enterovirus C.

Each structure is given as a SMILES string. Where only a bound is given, the exact number is not on record here.

`Cc1cc(CCCCCOc2c(Cl)cc(-c3ccc(Cl)o3)cc2Cl)on1`: the IC50 (as a rule, the concentration that gives 50% inhibition) in the assay with rhinovirus B14 came to 2000 nM.

`Cc1cc(CCCOc2c(C)cc(-c3noc(C(F)(F)F)n3)cc2C)on1` [PLECONARIL]: the figures for the IC50 in the assay on Enterovirus [1] and with HeLa were ≤ 30 nM and ≤ 180 nM, respectively.

Take `Cc1nc(-c2ccc(OCCC(C)CCN3CCN(c4ccncc4)C3=O)cc2)no1` (centres undefined): in the assay with Enterovirus A71 [2], the EC50 (commonly the concentration that produces a half-maximal response) was found to be 0.9 nM.

Take `Cc1cc(CCCCCOc2c(Cl)cc(-c3nnn(C)n3)cc2Cl)on1`: the IC50 in the assay with rhinovirus B14 worked out at 1200 nM.

As to `COc1ccc(OCc2ccc(COc3ccc(OC)cc3Cl)cc2)c(Cl)c1`, the concentration for a half-maximal effect (EC50) in the assay with Enterovirus [3] (Enterovirus) is 10 nM.

As for `Cc1cc(CCCCCOc2c(Cl)cc(-c3ccc(C)o3)cc2Cl)on1`, the IC50 in the assay with rhinovirus B14 was 2640 nM.

Regarding `Cc1cc(CCCOc2c(C)cc(-c3cccc4ccccc34)cc2C)on1`, the IC50 was determined as 1340 nM with Coxsackievirus B3 and 9 nM in the assay with rhinovirus A2.

Consider `Cc1cc(CCCCCOc2c(Cl)cc(-c3ccc(Cl)s3)cc2Cl)on1`, for which, in the assay on rhinovirus B14, the IC50 was found to be 5300 nM.

`Cc1cc(CCCCCOc2c(Cl)cc(-c3cccs3)cc2Cl)on1` returned an IC50 in the assay on rhinovirus B14 of 7320 nM.

The compound `Cc1cc(CCCCCOc2c(Cl)cc(-c3ccco3)cc2Cl)on1` gave an IC50 with rhinovirus B14 of 710 nM.

For `Cc1cc(CCCCCOc2c(Cl)cc(-c3cccnc3)cc2Cl)on1`, the half-maximal inhibitory concentration (IC50) with rhinovirus B14 is 970 nM.

On to `Cc1cc(CCCCCOc2c(Cl)cc(-c3ncco3)cc2Cl)on1`, for which, in the assay on rhinovirus B14, half-maximal inhibition (IC50) was put at 1830 nM.

With `Cc1cc(CCCCCCCOc2ccc(C3=NC(C)CO3)cc2)on1` (centres undefined), the IC50 lay within 100 to 120 nM with Poliovirus 2 [4] and 40 to 60 nM with rhinovirus A2.

`COc1ccc(OCc2ccc(COc3c(Cl)cccc3Cl)cc2)c(Cl)c1`: the Activity in the assay on Poliovirus 2 [5] and in the assay with Human rhinovirus sp. [7] was 80% in each case. In addition, the EC50 was 3 to 126 nM with Enterovirus C [6], 900 nM with Poliovirus 2 [4], < 76 nM in the assay with Enterovirus C [8] and 900 nM with Human rhinovirus sp. [10]. In the assay on Enterovirus C [9], the “inhibition (INH)” value came to 90%.

For the compound `Cc1cc(CCCOc2c(C)cc(-c3ccc(O)cc3)cc2C)on1`, the 50% inhibitory concentration (IC50) (in [11]; in the assay on rhinovirus B5) was 770 nM in each case.

Turning to `Cc1cc(CCCOc2c(C)cc(-c3ccc([N+](=O)[O-])cc3)cc2C)on1`, the IC50 (in assay [11]; in the assay on rhinovirus B5) was 760 nM each time.

Compound `Cc1cc(CCCCCOc2c(Cl)cc(-c3ccc(C)s3)cc2Cl)on1` returned an IC50 in the assay with rhinovirus B14 of 5200 nM.

As to `Cc1cc(CCCOc2c(C)cc(-c3ccccc3F)cc2C)on1`, the IC50 in assay [11] was determined as 120 nM; in the assay with rhinovirus B5 it was 110 nM.

`Cc1cc(CCCOc2c(C)cc(-c3ccc(C(F)(F)F)cc3)cc2C)on1`: the results for the IC50 in the assay with Coxsackievirus B3 and in the assay with rhinovirus A2 were 1340 nM and 9 nM, respectively.

With `Cc1cc(CCCCCCCOc2ccc(C3=NC(C)(C)CO3)cc2)on1`, the IC50 in the assay on Poliovirus 2 [4] was 100 to 120 nM; in the assay with rhinovirus A2, 40 to 60 nM.

As to `Cc1ccc(-c2cc(C)c(OCCCc3cc(C)no3)c(C)c2)cc1`, the IC50 in [11] was 120 nM; in the assay on rhinovirus B5, 110 nM.

For the compound `Cc1cc(CCCOc2c(C)cc(-c3ccc(OC(F)(F)F)cc3)cc2C)on1`, the IC50 with Coxsackievirus B3 is 1340 nM; in the assay on rhinovirus A2, 9 nM.

Take `Cc1cc(CCCOc2c(C)cc(-c3cccc(O)c3)cc2C)on1`: the IC50 (in assay [11]; with rhinovirus B5) was 440 nM each time.

As for `Cc1cc(CCCCCCCOc2ccc(C3=NC(CO)CO3)cc2)on1` (centres undefined), the IC50 with Poliovirus 2 [4] and in the assay on rhinovirus A2 was 900 to 2600 nM throughout.

Turning to `Cc1cc(CCCOc2c(C)cc(-c3ccc(C)c(C)c3)cc2C)on1`, the IC50 in the assay with Coxsackievirus B3 was found to be 1340 nM; in the assay with rhinovirus A2, 9 nM.

In turn, `COc1ccc(OCCCCCCn2ccnc2)c(Cl)c1` came in with an EC50 in the assay with Enterovirus [3] (Enterovirus) of 10200 to 29100 nM.

Turning to `Cc1cc(CCCOc2c(C)cc(-c3ccc(F)cc3)cc2C)on1`, the IC50 in assay [11] was determined as 120 nM; with Coxsackievirus B3, 1340 nM; in the assay on rhinovirus A2, 9 nM; in the assay with rhinovirus B5, 110 nM.

On to `Cc1cc(CCCOc2c(C)cc(-c3cccc(F)c3)cc2C)on1`, for which the half-maximal inhibitory concentration (IC50) is 1340 nM in the assay with Coxsackievirus B3 and 9 nM with rhinovirus A2.

For the compound `Cc1cc(CCCOc2c(C)cc(-c3ccccc3C)cc2C)on1`, the IC50 in the assay on Coxsackievirus B3 came to 1340 nM; in the assay with rhinovirus A2, 9 nM.

For `Cc1cc(CCCCCCCOc2ccc(C3=NCC(CO)O3)cc2)on1` (centres undefined), the IC50 with Poliovirus 2 [4] and in the assay on rhinovirus A2 was 900 to 2600 nM in each case.

As for `Cc1cc(CCCOc2c(C)cc(-c3ccc(Cl)cc3)cc2C)on1`, the IC50 in assay [11] came out at 120 nM; in the assay with rhinovirus B5 it was 110 nM.

On to `CCc1nc(-c2ccc(OCCC(C)CCN3CCN(c4ccncc4)C3=O)cc2)no1` (centres undefined), for which, in the assay with Enterovirus A71 [2], the EC50 was 0.5 nM.

For `Nc1nc(-c2ccccc2)nc2[nH]nc(Nc3ccc(C(F)(F)F)cc3)c12`, the IC50 (in [12]; in assay [13]; with Coxsackievirus B3; in assay [14]; in the assay with rhinovirus A2; with rhinovirus B5) was 40 to 640 nM throughout.

Take `Cc1cc(CCCOc2c(C)cc(-c3ccc(-c4ccccc4)cc3)cc2C)on1`: the IC50 was found to be 1340 nM with Coxsackievirus B3 and 9 nM in the assay with rhinovirus A2.

Turning to `Cc1cc(CCCOc2c(C)cc(-c3cc(C(F)(F)F)cc(C(F)(F)F)c3)cc2C)on1`, the IC50 in the assay on Coxsackievirus B3 came out at 1340 nM; in the assay on rhinovirus A2, 9 nM.

As for `Cc1cc(CCCOc2c(C)cc(-c3cccc([N+](=O)[O-])c3)cc2C)on1`, the IC50 (in assay [11]; in the assay on rhinovirus B5) was 350 nM in each case.

As for `Cc1cc(CCCCCCCOc2ccc(C3=NCCO3)cc2)on1` [DISOXARIL], the IC50 was 4 to 6200 nM in the assay on Enterovirus [3], 4 nM with Poliovirus 2 [4] and 4 nM in the assay on rhinovirus A2.

Turning to `O=C1N(CCCCCOc2ccc(Br)cc2)CCN1c1ccncc1`, the IC50 in the assay with Enterovirus A71 [15] is 300 to 1600 nM; with Coxsackievirus A9, 470 to 550 nM; in the assay on Enterovirus A71 [16], 300 to 1600 nM; in the assay on Coxsackievirus A24, 470 to 550 nM; in the assay on enterovirus D68 it was 2130 nM; in the assay with Enterovirus A71 [17], 300 to 1600 nM. This compound also displayed an IC50 in the assay on Echovirus E9 of 2600 nM.

On to `Cc1cc(CCCOc2c(C)cc(-c3cccc(C(F)(F)F)c3)cc2C)on1`, for which the IC50 in the assay on Coxsackievirus B3 amounted to 1340 nM; with rhinovirus A2, 9 nM.

With `Cc1cc(CCCCCCOc2ccc(C3=NCCO3)cc2)on1`, the IC50 is 8 nM with Poliovirus 2 [4] and 100 to 120 nM in the assay on rhinovirus A2.

In the case of `Cc1cc(CCCCCOc2ccc(C3=NCCO3)cc2)on1`, the IC50 was 3 nM in the assay on Poliovirus 2 [4] and 100 to 120 nM with rhinovirus A2.

Regarding `COc1ccc(N2CCN(c3cccc(C)c3)CC2)nn1`, in the assay on Enterovirus [18], at 32 µM the inhibition was 80%.

With `COc1cc(-c2cc(C)c(OCCCc3cc(C)no3)c(C)c2)cc(OC)c1OC`, the IC50 with Coxsackievirus B3 came out at 1340 nM; in the assay with rhinovirus A2, 9 nM.

On to `COc1ccc(OCCCCCCCc2cc(C)no2)c(Cl)c1`, for which the IC50 fell in the range of 40 to 150 nM in the assay on Echovirus E11, 40 to 150 nM in assay [19], 10 to 5800 nM in the assay with Enterovirus [3] (Enterovirus) and 40 to 150 nM in the assay on Poliovirus 2 [20].

Turning to `Cc1cc(CCCCCOc2c(Cl)cc(-c3cnco3)cc2Cl)on1`, in the assay on rhinovirus B14, the IC50 was 12800 nM.

These data come from ChEMBL document CHEMBL4359828, “Back to the future: Advances in development of broad-spectrum capsid-binding inhibitors of enteroviruses” (Eur J Med Chem, 2019).
